Measurements: ChEMBL document CHEMBL2057062, “Synthesis and biological evaluation of 4-phenylquinazoline-2-carboxamides designed as a novel class of potent ligands of the translocator protein” (J Med Chem, 2012)
The source made the active and inactive calls. No cut-off for these calls is given here.

Assays:
[1] = biological target: Translocator protein (Rattus norvegicus) (UniProt P16257); test: Displacement of [3H]PK11195 from TSPO in rat kidney mitochondrial membranes at 1 uM by competitive binding assay; assay type: cell membranes; settings: Membrane
[2] = species: Rattus norvegicus; test: Displacement of [3H]flumazenil from central benzodiazepine receptor in rat cerebral cortex membranes at 10 uM after 90 mins by competitive binding assay; assay type: cell membranes; settings: Membrane
[3] = biological target: Translocator protein (Rattus norvegicus, UniProt P16257); test: Displacement of [3H]PK11195 from TSPO in rat kidney mitochondrial membranes by competitive binding assay; assay type: cell membranes, Membrane
[4] = test system: C6; test: Increase in pregnenolone production in rat C6 glioma cells at 40 uM after 2 hrs by ELISA; assay type: functional, cell-based
[5] = test system: U-87MG ATCC; test: Antiproliferative activity against human U87MG cells assessed as cell viability at 100 uM after 24 hrs by MTS assay; assay type: functional, cell-based

SMILES | inhibition [1] | inhibition [2] | Ki [3] | Activity [4] | Activity [5]
O=C(c1nc(-c2ccccc2)c2cc(Cl)ccc2n1)N1CCCCCC1 | 38% | 0% |  |  | 
CCCCCCN(CCCCCC)C(=O)c1nc(-c2ccccc2Cl)c2ccccc2n1 |  | 0% | 65.1 nM |  | 
CCC(C)N(C)C(=O)c1nc(-c2ccccc2)c2cc(Cl)ccc2n1 (stereo unspecified) | 22% | 0% |  |  | 
CCCN(CCC)C(=O)c1nc(-c2ccccc2)c2ccccc2n1 |  | 0% | 36.8 nM |  | 
O=C(c1nc(-c2ccc(Cl)cc2)c2ccccc2n1)N1CCCCCC1 |  | 0% | 84.3 nM |  | 
CC(C)N(C)C(=O)c1nc(-c2ccccc2Cl)c2cc(Cl)ccc2n1 | 0% | 0% |  |  | 
CCCCCCN(CCCCCC)C(=O)c1nc(-c2ccc(Cl)cc2)c2ccccc2n1 |  | 0% | 3.42 nM | Active | 
O=C(c1nc(-c2ccccc2)c2ccccc2n1)N1CCCC1 | 36% | 0% |  |  | 
CC(C)N(C)C(=O)c1nc(-c2ccc(Cl)cc2)c2ccccc2n1 |  | 0% | 50.4 nM |  | 
CC(C)N(C)C(=O)c1nc(-c2ccccc2)c2cc(Cl)ccc2n1 | 0% | 0% |  |  | 
CCCCCCN(CCCCCC)C(=O)c1nc(-c2ccc(Cl)cc2)c2cc(Cl)ccc2n1 |  | 0% | 4.31 nM |  | 
CCCCCCN(CCCCCC)C(=O)c1nc(-c2ccccc2)c2cc(Cl)ccc2n1 |  | 0% | 38.5 nM |  | 
CC(C)N(C)C(=O)c1nc(-c2ccccc2Cl)c2ccccc2n1 |  | 0% | 12.5 nM |  | 
CCC(C)NC(=O)c1nc(-c2ccccc2)c2cc(Cl)ccc2n1 (stereo unspecified) | 0% | 0% |  |  | 
CC[C@@H](C)N(C)C(=O)c1nc(-c2ccccc2Cl)c2ccccc2n1 |  | 0% | 1.55 nM |  | 
CCOC(=O)c1ncn2c1CN(C)C(=O)c1cc(F)ccc1-2 |  | 0% |  |  | 
CCCCN(CCCC)C(=O)c1nc(-c2ccccc2)c2ccccc2n1 |  | 0% | 3.3 nM | Active | 
CN1C(=O)CN=C(c2ccc(Cl)cc2)c2cc(Cl)ccc21 |  | 0% |  | Active | 
CCC(C)NC(=O)c1nc(-c2ccc(Cl)cc2)c2ccccc2n1 (stereo unspecified) | 37% | 0% |  |  | 
CC[C@H](C)N(C)C(=O)c1nc(-c2ccc(Cl)cc2)c2ccccc2n1 |  | 0% | 2.51 nM |  | 
CC(C)CN(C)C(=O)c1nc(-c2ccc(Cl)cc2)c2cc(Cl)ccc2n1 |  | 0% | 60.7 nM |  | 

SMILES | inhibition [1] | inhibition [2] | Ki [3] | Activity [4] | Activity [5]
CC(C)N(C)C(=O)c1nc(-c2ccccc2)c2ccccc2n1 |  | 0% | 70.3 nM |  | 
O=C(c1nc(-c2ccccc2Cl)c2ccccc2n1)N1CCCC1 | 70% | 0% |  |  | 
CCC(C)N(C)C(=O)c1nc(-c2ccc(Cl)cc2)c2cc(Cl)ccc2n1 (stereo unspecified) |  | 0% | 179 nM |  | 
CC[C@H](C)N(C)C(=O)c1nc(-c2ccccc2)c2ccccc2n1 |  | 0% | 6.09 nM |  | 
O=C(c1nc(-c2ccccc2Cl)c2ccccc2n1)N1CCCCCC1 |  | 0% | 8.77 nM |  | 
CCC(C)N(C)C(=O)c1nc(-c2ccccc2)c2ccccc2n1 (stereo unspecified) |  | 0% | 3 nM |  | 
CN1C(=O)CN=C(c2ccccc2F)c2cc([N+](=O)[O-])ccc21 |  | 0% |  |  | 
CC(C)CN(C)C(=O)c1nc(-c2ccccc2Cl)c2ccccc2n1 |  | 0% | 6.98 nM |  | 
O=C(c1nc(-c2ccc(Cl)cc2)c2cc(Cl)ccc2n1)N1CCCCC1 | 76% | 0% |  |  | 
CCC(C)N(C)C(=O)c1nc(-c2ccc(Cl)cc2)c2ccccc2n1 (stereo unspecified) |  | 0% | 2.67 nM | Active | 
CCCN(CCC)C(=O)Cc1c(-c2ccc(Cl)cc2)nc2ccc(Cl)cn12 |  | 0% |  |  | 
CCCCN(C)C(=O)c1nc(-c2ccccc2)c2ccccc2n1 |  | 0% | 46 nM | Active | 
CC[C@@H](C)N(C)C(=O)c1nc(-c2ccccc2)c2ccccc2n1 |  | 0% | 6.41 nM |  | 
O=C(c1nc(-c2ccccc2)c2cc(Cl)ccc2n1)N1CCCCC1 | 46% | 0% |  |  | 
CC(C)N(C)C(=O)c1nc(-c2ccc(Cl)cc2)c2cc(Cl)ccc2n1 | 39% | 0% |  |  | 
O=C(c1nc(-c2ccc(Cl)cc2)c2ccccc2n1)N1CCCC1 |  | 0% | 644 nM |  | 
O=C(c1nc(-c2ccccc2Cl)c2ccccc2n1)N1CCCCC1 |  | 0% | 46 nM |  | 
O=C(c1nc(-c2ccccc2)c2cc(Cl)ccc2n1)N1CCCC1 | 43% | 0% |  |  | 
O=C(c1nc(-c2ccccc2Cl)c2cc(Cl)ccc2n1)N1CCCC1 | 73% | 0% |  |  | 
CCCCCN(CCCCC)C(=O)c1nc(-c2ccccc2)c2ccccc2n1 |  | 0% |  |  | 
CCC(C)NC(=O)c1nc(-c2ccccc2)c2ccccc2n1 (stereo unspecified) | 0% | 0% |  |  | 

SMILES | inhibition [1] | inhibition [2] | Ki [3] | Activity [4] | Activity [5]
CCC(C)NC(=O)c1nc(-c2ccccc2Cl)c2ccccc2n1 (stereo unspecified) | 63% | 0% |  |  | 
CCC(C)N(C)C(=O)c1nc(-c2ccccc2Cl)c2cc(Cl)ccc2n1 (stereo unspecified) | 43% | 0% |  |  | 
CC[C@H](C)N(C)C(=O)c1nc(-c2ccccc2Cl)c2ccccc2n1 |  | 0% | 2.2 nM |  | 
CC(C)CN(C)C(=O)c1nc(-c2ccccc2)c2ccccc2n1 |  | 0% | 66.5 nM |  | 
CCCCCCN(CCCCCC)C(=O)c1nc(-c2ccccc2)c2ccccc2n1 |  | 0% | 0.69 nM | inactive | Active
CC(C)CN(C)C(=O)c1nc(-c2ccccc2Cl)c2cc(Cl)ccc2n1 | 77% | 0% |  |  | 
CCC(C)N(C)C(=O)c1nc(-c2ccccc2Cl)c2ccccc2n1 (stereo unspecified) |  | 0% | 3.06 nM | Active | Active
CCCCCCN(CCCCCC)C(=O)c1nc(-c2ccccc2Cl)c2cc(Cl)ccc2n1 |  | 0% | 30.4 nM |  | 
O=C(c1nc(-c2ccc(Cl)cc2)c2cc(Cl)ccc2n1)N1CCCC1 | 64% | 0% |  |  | 
O=C(c1nc(-c2ccc(Cl)cc2)c2ccccc2n1)N1CCCCC1 |  | 0% | 493 nM |  | 
O=C(c1nc(-c2ccccc2Cl)c2cc(Cl)ccc2n1)N1CCCCC1 |  | 0% | 273 nM |  | 
O=C(c1nc(-c2ccccc2)c2ccccc2n1)N1CCCCC1 | 61% | 0% |  |  | 
CC(C)CN(C)C(=O)c1nc(-c2ccc(Cl)cc2)c2ccccc2n1 |  | 0% | 20.7 nM |  | 
O=C(c1nc(-c2ccccc2)c2ccccc2n1)N1CCCCCC1 | 79% | 0% |  |  | 
CC(C)CN(C)C(=O)c1nc(-c2ccccc2)c2cc(Cl)ccc2n1 |  | 0% | 842 nM |  | 
CCC(C)NC(=O)c1nc(-c2ccccc2Cl)c2cc(Cl)ccc2n1 (stereo unspecified) | 0% | 0% |  |  | 
CC[C@@H](C)N(C)C(=O)c1nc(-c2ccc(Cl)cc2)c2ccccc2n1 |  | 0% | 1.57 nM |  | 
CCC(C)N(C)C(=O)c1cc2ccccc2c(-c2ccccc2Cl)n1 (stereo unspecified) |  | 0% |  | Active | Active
O=C(c1nc(-c2ccc(Cl)cc2)c2cc(Cl)ccc2n1)N1CCCCCC1 | 77% | 0% |  |  | 
O=C(c1nc(-c2ccccc2Cl)c2cc(Cl)ccc2n1)N1CCCCCC1 |  | 0% | 415 nM |  | 
CCC(C)NC(=O)c1nc(-c2ccc(Cl)cc2)c2cc(Cl)ccc2n1 (stereo unspecified) | 49% | 0% |  |  | 
